Among the data in US20140038989A1, “TETRAHYDROPYRAZOLO [1,5-A] PYRIMIDINE AS ANTI-TUBERCULOSIS COMPOUNDS” (Glaxo Group Limited, priority 2011, published 2014) are MIC values, retold here.

Structures are written as SMILES. ≈ marks a conversion by molar mass, not a printed value.

This test has as its system Mycobacterium tuberculosis H37Rv. In words: Mycobacterium tuberculosis H37Rv Inhibition Assay (Whole Cell Assay). It counts as cell-based. The conditions noted are these: ATCC 25618 / H37Rv, H37Rv strain (ATCC25618), Middlebrook 7H9, six days at 37° C., resazurin fluorescence after 48 hours.
`CCc1ccc([C@H]2C[C@@H](C(F)(F)F)n3ncc(C(=O)NCc4ccc(C)c(C)c4)c3N2)cc1` (relative stereo) [Example 65, Cis-N-(3,4-dimethylbenzyl)-5-(4-ethylphenyl)-7-(trifluoromethyl)-4,5,6,7-tetrahydropyrazolo[1,5-a]pyrimidine-3-carboxamide] returned an MIC of at most 1 µM.
For the compound `CCc1ccc([C@H]2C[C@@H](C(F)(F)F)n3ncc(C(=O)NCc4ccco4)c3N2)cc1` (single isomer, unassigned) [Example 7a], the minimum inhibitory concentration (MIC) was at most 1 µM.
Compound `CCc1ccc([C@H]2C[C@@H](C(F)(F)F)n3ncc(C(=O)NCc4ccc(C)o4)c3N2)cc1` (relative stereo) [Example 4, Cis-5-(4-ethylphenyl)-N-((5-methylfuran-2-yl)methyl)-7-(trifluoromethyl)-4,5,6,7-tetrahydropyrazolo[1,5-a]pyrimidine-3-carboxamide] returned an MIC of at most 1 µM.
Compound `CCc1ccc([C@H]2C[C@@H](C(F)(F)F)n3ncc(C(=O)NCc4ncc(C)cc4F)c3N2)cc1` [Example 106, (5R,7S)-5-(4-ethylphenyl)-N-((3-fluoro-5-methylpyridin-2-yl)methyl)-7-(trifluoromethyl)-4,5,6,7-tetrahydropyrazolo[1,5-a]pyrimidine-3-carboxamide] came in with an MIC of 1 to 2 µM (≈ 0.461 to 0.923 µg/mL).
In the case of `CCc1ccc([C@H]2C[C@@H](C(F)F)n3ncc(C(=O)NCc4ccc5c(c4)OCO5)c3N2)cc1` (relative stereo) [Example 34, Cis-N-(benzo[d][1,3]dioxol-5-ylmethyl)-7-(difluoromethyl)-5-(4-ethylphenyl)-4,5,6,7-tetrahydropyrazolo[1,5-a]pyrimidine-3-carboxamide], the MIC is at most 1 µM.
Then `CCc1ccc([C@H]2C[C@@H](C(F)(F)F)n3ncc(C(=O)NCc4cccc(OC)c4)c3N2)cc1` (relative stereo) [Example 8, Cis-5-(4-ethylphenyl)-N-{[3-(methyloxy)phenyl]methyl}-7-(trifluoromethyl)-4,5,6,7-tetrahydropyrazolo[1,5-a]pyrimidine-3-carboxamide], with at most 1 µM.
Then `CCc1ccc([C@H]2C[C@@H](C(F)(F)F)n3ncc(C(=O)NCc4ccccc4C(F)(F)F)c3N2)cc1` (relative stereo) [Example 44, Cis-5-(4-ethylphenyl)-7-(trifluoromethyl)-N-(2-(trifluoromethyl)benzyl)-4,5,6,7-tetrahydropyrazolo[1,5-a]pyrimidine-3-carboxamide], with above 2 µM; and `CCc1ccc([C@H]2C[C@@H](C(F)(F)F)n3ncc(C(=O)NCc4ncc(F)cc4F)c3N2)cc1` (relative stereo) [Example 70, Cis N-((3,5-difluoropyridin-2-yl)methyl)-5-(4-ethylphenyl)-7-(trifluoromethyl)-4,5,6,7-tetrahydropyrazolo[1,5-a]pyrimidine-3-carboxamide], with at most 1 µM; and `CCc1ccc([C@H]2C[C@@H](C(F)(F)F)n3ncc(C(=O)NCc4cnc(OC)c(F)c4)c3N2)cc1` [Example 104, (5R,7S)-5-(4-ethylphenyl)-N-((5-fluoro-6-methoxypyridin-3-yl)methyl)-7-(trifluoromethyl)-4,5,6,7-tetrahydropyrazolo[1,5-a]pyrimidine-3-carboxamide], with at most 1 µM.
`COc1ccc(C2CC(C(F)(F)F)n3ncc(C(=O)NCc4ccccc4)c3N2)cc1` (stereo not drawn) [Example 53, N-benzyl-5-(4-methoxyphenyl)-7-(trifluoromethyl)-4,5,6,7-tetrahydropyrazolo[1,5-a]pyrimidine-3-carboxamide] gave an MIC above 2 µM.
Take `CCc1ccc([C@H]2C[C@@H](C(F)(F)F)n3ncc(C(=O)NCc4ccc(F)c(C)c4)c3N2)cc1` (relative stereo) [Example 63, Cis-5-(4-ethylphenyl)-N-(4-fluoro-3-methylbenzyl)-7-(trifluoromethyl)-4,5,6,7-tetrahydropyrazolo[1,5-a]pyrimidine-3-carboxamide]: the MIC was at most 1 µM.
For the compound `CCc1ccc([C@H]2C[C@@H](C(F)(F)F)n3ncc(C(=O)NCc4ccc(F)cc4F)c3N2)cc1` (relative stereo) [Example 59, Cis-N-[(2,4-difluorophenyl)methyl]-5-(4-ethylphenyl)-7-(trifluoromethyl)-4,5,6,7-tetrahydropyrazolo[1,5-a]pyrimidine-3-carboxamide], the MIC is at most 1 µM.
`COc1ccc(CNC(=O)c2cnn3c2N[C@@H](c2ccc(Br)cc2)C[C@H]3C(F)(F)F)cc1` (relative stereo) [Example 42, Cis-5-(4-bromophenyl)-N-(4-methoxybenzyl)-7-(trifluoromethyl)-4,5,6,7-tetrahydropyrazolo[1,5-a]pyrimidine-3-carboxamide] returned an MIC above 2 µM.
Compound `Cc1ccc([C@H]2C[C@@H](C(F)(F)F)n3ncc(C(=O)NCC4CCCCC4)c3N2)cc1` (relative stereo) [Example 26, Cis-N-(cyclohexylmethyl)-5-(p-tolyl)-7-(trifluoromethyl)-4,5,6,7-tetrahydropyrazolo[1,5-a]pyrimidine-3-carboxamide] displayed an MIC of 1 to 2 µM (≈ 0.42 to 0.841 µg/mL).
Consider `CCc1ccc([C@H]2C[C@@H](C(F)(F)F)n3ncc(C(=O)NCc4ccc(OC)nc4)c3N2)cc1` [Example 102, (5R,7S)-5-(4-ethylphenyl)-N-((6-methoxypyridin-3-yl)methyl)-7-(trifluoromethyl)-4,5,6,7-tetrahydropyrazolo[1,5-a]pyrimidine-3-carboxamide], for which the minimum inhibitory concentration (MIC) was at most 1 µM.
In the case of `CCc1ccc([C@H]2C[C@@H](C(F)(F)F)n3ncc(C(=O)NCc4ccc(C)cn4)c3N2)cc1` (relative stereo) [Example 20, Cis-5-(4-ethylphenyl)-N-((5-methylpyridin-2-yl)methyl)-7-(trifluoromethyl)-4,5,6,7-tetrahydropyrazolo[1,5-a]pyrimidine-3-carboxamide], the MIC was 1 to 2 µM (≈ 0.443 to 0.887 µg/mL).
Regarding `Cc1ccc([C@H]2C[C@@H](C(F)(F)F)n3ncc(C(=O)NCc4ccc(C)c(Cl)c4)c3N2)cc1` (relative stereo) [Example 29, Cis-N-(3-chloro-4-methylbenzyl)-5-(p-tolyl)-7-(trifluoromethyl)-4,5,6,7-tetrahydropyrazolo[1,5-a]pyrimidine-3-carboxamide], the MIC was in the range of 1 to 2 µM (≈ 0.463 to 0.926 µg/mL).
As to `CCc1ccc([C@H]2C[C@@H](C(F)(F)F)n3ncc(C(=O)NCc4ccc(Cl)cc4)c3N2)cc1` (relative stereo) [Example 67, Cis-N-(4-chlorobenzyl)-5-(4-ethylphenyl)-7-(trifluoromethyl)-4,5,6,7-tetrahydropyrazolo[1,5-a]pyrimidine-3-carboxamide], the MIC was at most 1 µM.
Compound `CCc1ccc([C@H]2C[C@@H](C(F)(F)F)n3ncc(C(=O)NCc4ccc(C)c(F)c4)c3N2)cc1` (relative stereo) [Example 64, Cis-5-(4-ethylphenyl)-N-(3-fluoro-4-methylbenzyl)-7-(trifluoromethyl)-4,5,6,7-tetrahydropyrazolo[1,5-a]pyrimidine-3-carboxamide] had an MIC of at most 1 µM.
Then `CCc1ccc([C@H]2C[C@@H](C(F)(F)F)n3ncc(C(=O)NCc4cccc(C)c4)c3N2)cc1` (relative stereo) [Example 3, Cis-5-(4-ethylphenyl)-N-(3-methylbenzyl)-7-(trifluoromethyl)-4,5,6,7-tetrahydropyrazolo[1,5-a]pyrimidine-3-carboxamide], with at most 1 µM.
To `CCc1ccc([C@H]2C[C@@H](C(F)F)n3ncc(C(=O)NCc4ccc(C)cc4)c3N2)cc1` (relative stereo) [Example 33, Cis-7-(difluoromethyl)-5-(4-ethylphenyl)-N-(4-methylbenzyl)-4,5,6,7-tetrahydropyrazolo[1,5-a]pyrimidine-3-carboxamide] belongs at most 1 µM; to `CCc1ccc([C@H]2C[C@@H](C(F)(F)F)n3ncc(C(=O)NCc4ccc(Cl)nc4)c3N2)cc1` [Example 103, (5R,7S)—N-((6-chloropyridin-3-yl)methyl)-5-(4-ethylphenyl)-7-(trifluoromethyl)-4,5,6,7-tetrahydropyrazolo[1,5-a]pyrimidine-3-carboxamide], at most 1 µM.
For `CCc1ccc([C@H]2C[C@@H](C(F)(F)F)n3ncc(C(=O)NCc4cccn4C)c3N2)cc1` (relative stereo) [Example 10, Cis-5-(4-ethylphenyl)-N-[(1-methyl-1H-pyrrol-2-yl)methyl]-7-(trifluoromethyl)-4,5,6,7-tetrahydropyrazolo[1,5-a]pyrimidine-3-carboxamide], the MIC is 1 to 2 µM (≈ 0.431 to 0.863 µg/mL).
On to `CCc1ccc([C@H]2C[C@@H](C(F)(F)F)n3ncc(C(=O)NCc4cccc(C(F)(F)F)c4)c3N2)cc1` (relative stereo) [Example 14, Cis-5-(4-ethylphenyl)-7-(trifluoromethyl)-N-{[3-(trifluoromethyl)phenyl]methyl}-4,5,6,7-tetrahydropyrazolo[1,5-a]pyrimidine-3-carboxamide], for which the MIC was 1 to 2 µM (≈ 0.496 to 0.993 µg/mL).
Then `CCc1ccc([C@H]2C[C@@H](C(F)(F)F)n3ncc(C(=O)NCc4ccc5c(c4)OCCO5)c3N2)cc1` (relative stereo) [Example 18, Cis-N-(2,3-dihydro-1,4-benzodioxin-6-ylmethyl)-5-(4-ethylphenyl)-7-(trifluoromethyl)-4,5,6,7-tetrahydropyrazolo[1,5-a]pyrimidine-3-carboxamide], with 1 to 2 µM (≈ 0.486 to 0.973 µg/mL); and `CCc1ccc([C@H]2C[C@@H](C(F)F)n3ncc(C(=O)NCc4ccc(OC)cc4)c3N2)cc1` (relative stereo) [Example 32, Cis-7-(difluoromethyl)-5-(4-ethylphenyl)-N-(4-methoxybenzyl)-4,5,6,7-tetrahydropyrazolo[1,5-a]pyrimidine-3-carboxamide], with at most 1 µM; and `CCc1ccc([C@H]2C[C@@H](C(F)(F)F)n3ncc(C(=O)NCC4CCCCC4)c3N2)cc1` (relative stereo) [Example 5, Cis-N-(cyclohexylmethyl)-5-(4-ethylphenyl)-7-(trifluoromethyl)-4,5,6,7-tetrahydropyrazolo[1,5-a]pyrimidine-3-carboxamide], with at most 1 µM.
